# Counter-ions that a name gives are not always drawn.
# Assays:
# human spermatozoa [1] = experiment: viability fold change, 1 - (PI-positive fraction / DMSO median); higher = more of the measured sperm population than DMSO, for viability, fewer PI-positive (dead) cells than DMSO; details: incubation time: 3h, non-capacitating
# human spermatozoa [2] = experiment: total motile sperm, percent change vs DMSO (non-capacitating); higher = more of the measured sperm population than DMSO, for viability, fewer PI-positive (dead) cells than DMSO
# human spermatozoa [3] = experiment: progressively motile sperm, percent change vs DMSO (non-capacitating); higher = more of the measured sperm population than DMSO, for viability, fewer PI-positive (dead) cells than DMSO; extreme values may be limits of the assay
# human spermatozoa [4] = experiment: acrosome-reacted (PNA+) sperm after agonist cocktail, percent change vs DMSO (capacitating); higher = more of the measured sperm population than DMSO, for viability, fewer PI-positive (dead) cells than DMSO; details: incubation time: 3h, capacitating + agonist cocktail 1h
# HeLa [5] = experiment: Cell Painting percent induction (share of features beyond 2 z-scores vs DMSO); higher = more features changed / larger toxic effect; extreme values may be limits of the assay; details: incubation time: 24h incubation
# human spermatozoa [6] = experiment: hyperactivated motile sperm, percent change vs DMSO (capacitating); higher = more of the measured sperm population than DMSO, for viability, fewer PI-positive (dead) cells than DMSO; details: incubation time: 30min incubation
# human spermatozoa [7] = experiment: progressively motile sperm, percent change vs DMSO (capacitating); higher = more of the measured sperm population than DMSO, for viability, fewer PI-positive (dead) cells than DMSO; details: incubation time: 30min incubation
# HeLa [8] = experiment: HeLa toxicity: nuclei-count effect normalised to DMSO (DMSO = 0); higher = more features changed / larger toxic effect; details: incubation time: 24h incubation
# human spermatozoa [9] = experiment: change in acrosome-reacted (PNA+) sperm vs DMSO, no agonist (capacitating); higher = more of the measured sperm population than DMSO, for viability, fewer PI-positive (dead) cells than DMSO; details: incubation time: 3h
# HepG2 = HepG2 toxicity (resazurin), effect normalised to DMSO (DMSO = 0); higher = more features changed / larger toxic effect; details: incubation time: 70h incubation
# [10] = incubation time: 10min incubation, 9.99 µM
# [11] = incubation time: 10min incubation, 29.9 µM
# [12] = incubation time: 3h incubation, 9.99 µM
# [13] = incubation time: 3h incubation, 29.9 µM
# [14] = incubation time: 6h incubation, 9.99 µM
# [15] = incubation time: 6h incubation, 29.9 µM
# 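Wherever progressively motile sperm, percent change vs DMSO (non-capacitating) is given: pooled live human sperm from at least 3 donors, tracked by automated microscopy in 0.5 s time-lapse movies, compounds at 10 and 30 µM, versus median of 16 DMSO wells per plate.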
# 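Wherever total motile sperm, percent change vs DMSO (non-capacitating) is given: sperm pooled from at least 3 donors, tracked in 0.5 s time-lapse movies by automated microscopy after 10 min, 3 h or 6 h with compound at 10 or 30 µM.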
SMILES,viability fold change (human spermatozoa [1]; 9.99 µM),viability fold change (human spermatozoa [1]; 29.9 µM),total motile sperm (human spermatozoa [2]; [10]) [%],total motile sperm (human spermatozoa [2]; [11]) [%],total motile sperm (human spermatozoa [2]; [12]) [%],total motile sperm (human spermatozoa [2]; [13]) [%],total motile sperm (human spermatozoa [2]; [14]) [%],total motile sperm (human spermatozoa [2]; [15]) [%],progressively motile sperm (human spermatozoa [3]; [10]) [%],progressively motile sperm (human spermatozoa [3]; [11]) [%],progressively motile sperm (human spermatozoa [3]; [12]) [%],progressively motile sperm (human spermatozoa [3]; [13]) [%],progressively motile sperm (human spermatozoa [3]; [14]) [%],progressively motile sperm (human spermatozoa [3]; [15]) [%],acrosome-reacted (human spermatozoa [4]; 9.99 µM) [%],acrosome-reacted (human spermatozoa [4]; 29.9 µM) [%],Cell Painting percent induction (HeLa [5]; 9.99 µM) [%],Cell Painting percent induction (HeLa [5]; 29.9 µM) [%],hyperactivated motile sperm (human spermatozoa [6]; 9.99 µM) [%],hyperactivated motile sperm (human spermatozoa [6]; 29.9 µM) [%],progressively motile sperm (human spermatozoa [7]; 9.99 µM) [%],progressively motile sperm (human spermatozoa [7]; 29.9 µM) [%],HeLa toxicity: nuclei-count effect normalised (HeLa [8]; 9.99 µM) [%],HeLa toxicity: nuclei-count effect normalised (HeLa [8]; 29.9 µM) [%],change in acrosome-reacted (human spermatozoa [9]; 9.99 µM) [%],change in acrosome-reacted (human spermatozoa [9]; 29.9 µM) [%],HepG2 toxicity (HepG2; 10 µM) [%],HepG2 toxicity (HepG2; 30 µM) [%]
Cc1ccc(S(=O)(=O)c2c(N)n(CC(O)c3ccc([N+](=O)[O-])cc3)c3nc4ccccc4nc23)cc1 (stereo unspecified),-0.179,0.2,1.39,2.71,1.22,-9.75,-1.06,-11.3,8.38,7.14,40.6,20.1,45.4,24.6,22.3,49.7,0.072,0.648,2.52,-33,7.62,16.1,9.49,44.6,0.985,1.51,–,–
COc1ccc(CCCN2CCC(COC(c3ccccc3)c3ccccc3)CC2)cc1,-1.38,-1.52,-0.81,2.28,0.77,-5.61,-0.213,-15.3,1.8,-4.83,20,-8.53,32.7,-19.4,4.02,18.6,0,10.8,-18.3,-70.2,-2.66,-7.92,11.7,80.9,1.43,2.85,1.6,103
Cc1[nH]c(/C=C2\C(=O)Nc3ccc(S(=O)(=O)Cc4c(Cl)cccc4Cl)cc32)c(C)c1C(=O)N1CCC[C@@H]1CN1CCCC1,-3.34,-3.76,-0.103,-18.4,-9.66,-49.8,-12.2,-57.4,6.38,-35.3,20.9,-68.2,18.6,-82,-1.2,30.3,20.4,17.5,-20.8,-80.4,-3.18,-76.5,94.7,92.9,3.55,20.4,102,103
COC(=O)c1c(C)[nH]c(C)c1C(=O)c1ccccc1Cc1ccccc1,0.0191,-0.102,0.541,-1.51,-6.62,-4.77,-5.32,-5.3,-1.68,-2.66,4.27,-4.02,12.6,4.09,25.4,48.8,0,0.18,21.1,-0.915,13.4,14.7,4.01,0.735,0.874,0.596,-4.33,10.6
CC(C)(C)c1ccc(S(=O)(=O)Nc2cnc3[nH]c(C(=O)N[C@H]4CCC[C@H]4O)c(-c4ccccc4)c3c2)cc1,0.0771,0.0653,-3.11,0.824,2.99,-0.471,-0.468,-0.141,-18.5,-14,-13,-11.7,-9.71,-14.5,-55.5,-40.6,–,–,-89.9,-90.6,-49.7,-49.4,–,–,0.406,0.723,3.81,16.8
CNc1ccc2oc(C[C@H]3O[C@@]4(CC[C@H]3C)O[C@H]([C@H](C)C(=O)c3ccc[nH]3)[C@H](C)C[C@H]4C)nc2c1C(=O)O,-2.53,-2.38,-57.2,-78.3,-89.9,-93.5,-92,-94.3,-82.5,-97.5,-99.9,-100,-99.9,-100,106,106,1.33,14.5,-68.5,-83.7,-89.8,-99.9,79.6,94.7,45.3,46.5,99.9,102
COc1cc2ncn(-c3cc(OCc4ccccc4C(F)(F)F)c(C(N)=O)s3)c2cc1OC,-1.45,-1.24,-14.5,-45.8,-27.6,-55.7,-30.1,-57.1,16.5,-45.9,26.5,-69.6,43.2,-68.4,123,120,2.81,2.27,157,59.7,-3.24,-34.8,78.2,78.9,0.45,-0.12,17.5,9.88
O=C(N1CCCCC1)N1CCCCC1Cc1ccccc1 (stereo unspecified),0.104,-0.0769,-0.235,4.54,-3.63,0.0877,-4.64,-4.36,-0.571,5.81,19.1,18.1,17.3,16.4,6.47,7.82,0,0,6.11,3.93,9.35,20.1,-3.81,-5.74,–,–,5.44,-4.3
CN(C)CCCn1cc(C2=C(c3c[nH]c4ccccc34)C(=O)NC2=O)c2ccccc21,-0.204,-0.45,1.63,0.0178,-1.97,-13.1,1.29,-6.7,3.74,4.75,9.83,-7.22,23.9,-4.1,-2.39,-7.18,0.072,0.072,11.8,-3.96,4,5.48,-5.34,3.61,0.106,0.127,-5.59,8.33
N=C(N)Nc1nc2ccccc2[nH]1 [2-Guanidinobenzimidazole],-1.37,-0.849,0.879,-2.57,1.34,-1.87,1.24,-6.01,3.14,0.263,13,14,18.7,6.54,-0.796,-2.33,0,0.036,-8.85,-1.69,0.502,7.48,1.07,-4.21,–,–,7.28,-2.48
CC(=O)N1CCC(C(=O)N(CCCN2CCN(Cc3ccc(F)cc3)CC2)c2ccc(C)c(Cl)c2)CC1 [B07 hydrochloride],-0.0249,-0.378,-3.45,-1.62,-0.778,-4.4,-2.31,-8.75,-0.531,-2.62,3.74,-2.22,13.9,-0.382,-7.75,-16.6,0,0,4.68,-29.9,2.3,5.54,-8.22,-2.4,-0.33,-0.655,–,–
CC(C)(C)c1ccc(S(=O)(=O)Nc2ccc(OC(F)(F)F)c(F)c2-c2ccc(C(=O)O)c3ncccc23)cc1F [CCR6 inhibitor],-0.213,-0.279,2.36,5.45,-5.06,-0.0893,-5.81,-4.71,4.23,5.16,7.86,2.54,7.11,-7.05,4.58,-1.79,–,–,12.5,-21,3.94,10.4,–,–,0.627,0.716,2.54,-7.66
CO[C@H]1[C@@H](OC)C[C@H](C)[C@@H](OC)C2=CC(=O)C=C(NC(=O)/C(C)=C/C=C/[C@H](OC)[C@@H](OC(N)=O)/C(C)=C/[C@@H]1C)C2=O [Herbimycin a],-1.59,-1.04,7.08,3.19,-13.6,-85.1,-11.7,-85,11.6,-9.27,-37.6,-100,-46.3,-100,–,–,0.216,0,-22.2,-70.4,3.33,-50.9,23.2,37.9,–,–,101,103
CCS(=O)(=O)Nc1ccc2c(c1)/C(=C(/Nc1ccc(CN3CCCCC3)cc1)c1ccccc1)C(=O)N2 [Hesperadin hydrochloride],-0.123,-0.0637,-7.06,-8.13,-15.5,-16.9,-15.3,-19,-47.3,-48.7,-44.8,-57.8,-44.4,-55.4,-34.6,-37.5,19.1,29.9,-68.7,-76,-13.4,-15.1,84.4,96.7,0.15,1.01,–,–
CCCCCCOC(=O)[C@]1(O)C[C@@H]2O[C@@]1(C)n1c3ccccc3c3c4c(c5c6ccccc6n2c5c31)C(=O)NC4 [KT 5720],-0.0644,-0.13,-0.664,-5.21,5.89,-0.934,5.3,0.422,-3.28,-15.1,16.6,6.24,29.8,17.9,0.89,0.941,0,0.072,5.63,-20.1,2.73,-4.6,-2.2,9.55,1.66,0.54,–,–
NC(=O)c1cccnc1 [Nicotinamid],-0.835,-0.522,0.928,6.07,-8.41,-0.358,-0.499,0.662,15.4,14.2,-10.7,3.29,0.762,-3.22,–,–,–,–,16,5.44,3.35,13.2,–,–,–,–,–,–
C[C@@H]1O[C@@H](O[C@H]2C[C@@H](O)[C@]3(CO)[C@H]4[C@H](O)C[C@]5(C)[C@@H](C6=CC(=O)OC6)CC[C@]5(O)[C@@H]4CC[C@]3(O)C2)[C@H](O)[C@H](O)[C@H]1O [Ouabain],–,–,–,–,–,–,–,–,–,–,–,–,–,–,–,–,0.54,0.324,–,–,–,–,72.1,70.1,–,–,94.6,93.2
c1cnc2c(c1)ccc1cccnc12 [Phenanthroline],0.0432,-0.258,-2.32,-4.26,3.46,-8.46,-1.8,-11.3,-0.0696,-0.36,1.8,-21.2,-1.34,-23.3,8.37,9.76,1.08,1.15,18.4,17.2,10.3,16.3,46,43,0.27,0.435,–,–
